Measured values: ChEMBL document CHEMBL3784951, “Discovery of (3-(4-(2-Oxa-6-azaspiro[3.3]heptan-6-ylmethyl)phenoxy)azetidin-1-yl)(5-(4-methoxyphenyl)-1,3,4-oxadiazol-2-yl)methanone (AZD1979), a Melanin Concentrating Hormone Receptor 1 (MCHr1) Antagonist with Favorable Physicochemical Properties” (J Med Chem, 2016)
Values after ≈ are worked out from the molar mass of the structure shown.

What was measured:
[1] = in vitro; conditions: human, Caco-2
[2] = physchem; conditions: buffer, pH 7.4
[3] = in vitro; conditions: human, microsomes
[4] = physchem
[5] = organism: Mus musculus; test: animal or person; conditions: C57BL/6J
[6] = in vitro; conditions: rat, microsomes
[7] = in vitro; conditions: human, Caco-2; remark: listed apart in the source
[8] = physchem; conditions: pH 7.4
[9] = organism: Mus musculus; test: animal or person; conditions: C57BL/6J; remark: listed apart in the source

SMILES	Papp A→B [1]	logD [2]	microsomal CLint [3]	pKa [4]	IC50 [5]	microsomal CLint [6]	efflux ratio [7]	solubility [8]	IC50 [9]
COc1ccc(-c2nnc(C(=O)N3CC(Oc4ccc(CN5CC6(CCCO6)C5)cc4)C3)o2)cc1	41 ×10⁻⁶ cm/s	2.7	29 µL/min/mg	8.4	2 nM				
O=C(c1nnc(-c2ccccc2)o1)N1CC(Oc2ccc(CN3CC4(CCOC4)C3)cc2)C1		2.1	2 µL/min/mg	8.6					
COc1ccc(-c2nnc(C(=O)N3CC(Oc4ccc(CN5CCCC56COC6)cc4)C3)o2)cc1		3.9	74 µL/min/mg						
COc1ccc(-c2nnc(C(=O)N3CC(Oc4ccc(CN5CCOCC5)c(OC)c4)C3)o2)cc1	51 ×10⁻⁶ cm/s	3.3	332 µL/min/mg	7.5					
COc1ccc(-c2nnc(C(=O)N3CCC(Oc4ccc(CN5CCN(C)CC5)cc4)CC3)o2)cc1	56 ×10⁻⁶ cm/s	2.5		8.5					
CN(Cc1ccc(OC2CN(C(=O)c3nnc(-c4ccccc4)o3)C2)cc1)CC1(C)COC1		4	117 µL/min/mg	8.5					
O=C(c1nnc(-c2ccccc2)o1)N1CC(Oc2ccc(CN3CC4(COC4)C3)cc2)C1	79 ×10⁻⁶ cm/s	1.8			15 nM				
COc1ccc(-c2nnc(C(=O)N3CCC(Oc4ccc(CN5CCCC5)cn4)CC3)o2)cc1	49 ×10⁻⁶ cm/s	2.3	24 µL/min/mg	9.2		28 µL/min/mg			
COc1ccc(-c2nnc(C(=O)N3CC(Oc4ccc(CN(C)C)c(C)c4)C3)o2)cc1	54 ×10⁻⁶ cm/s	2	22 µL/min/mg	9.3	1 nM	149 µL/min/mg	0.3		
COc1ccc(-c2nnc(C(=O)N3CC(Oc4ccc(CN(C)CC5(C)COC5)cc4)C3)o2)cc1		4.1	110 µL/min/mg	8					
O=C(c1nnc(-c2ccccc2)o1)N1CC(Oc2ccc(CN3CC4(CCCO4)C3)cc2)C1		2.6	6 µL/min/mg	8.4					
COc1ccc(-c2nnc(C(=O)N3CC(Oc4ccc(CN5CC(OC)C5)cc4)C3)o2)cc1		2.3	51 µL/min/mg	8.5					
O=C(c1nnc(-c2ccc(Cl)cc2)o1)N1CCC(Oc2ccc(CN3CCCC3)cc2)CC1	43 ×10⁻⁶ cm/s		13 µL/min/mg			17 µL/min/mg		70 µM (≈ 32.7 µg/mL)	
COc1ccc(-c2nnc(C(=O)N3CCC(Oc4ccc(CN5CCCC5)nc4)CC3)o2)cc1	31 ×10⁻⁶ cm/s	1.8		9.1					
CC1(O)CCN(Cc2ccc(OC3CN(C(=O)c4nnc(-c5ccccc5)o4)C3)cc2)C1 (stereo not given)	34 ×10⁻⁶ cm/s	1.45		9	146 nM		0.26		
Cn1nc(C(=O)N2CCC(Oc3ccc(CN4CCCC4)cc3)CC2)cc1-c1ccccc1		2.2	7 µL/min/mg					930 µM (≈ 413 µg/mL)	

SMILES	Papp A→B [1]	logD [2]	microsomal CLint [3]	pKa [4]	IC50 [5]	microsomal CLint [6]	efflux ratio [7]	solubility [8]	IC50 [9]
COc1ccc(-c2nnc(C(=O)N3CC(Oc4ccc(CN5CC6(CCOC6)C5)cc4)C3)o2)cc1	60 ×10⁻⁶ cm/s	2.2	14 µL/min/mg	8.6	2 nM				
O=C(c1nnc(-c2ccccc2Cl)o1)N1CCC(Oc2ccc(CN3CCCC3)cc2)CC1	59 ×10⁻⁶ cm/s	2.7	13 µL/min/mg						
COc1ccc(-c2nnc(C(=O)N3CC(Oc4ccc(CN5CCCOCC5)cc4)C3)o2)cc1	51 ×10⁻⁶ cm/s	2.4	37 µL/min/mg	8.1					
O=C(c1nnc(-c2ccc(F)cc2)o1)N1CCC(Oc2ccc(CN3CCCC3)cc2)CC1	52 ×10⁻⁶ cm/s	2.4						> 100 µM	
COc1ccc(-c2nnc(C(=O)N3CC(Oc4ccc(CN(C)C)cc4)C3)o2)cc1	67 ×10⁻⁶ cm/s	1.55	17 µL/min/mg	8.9	14 nM	53 µL/min/mg			
COc1ccc(-c2nnc(C(=O)N3CC(Oc4ccc(CN(C)C)c(F)c4)C3)o2)cc1	62 ×10⁻⁶ cm/s	2.2	42 µL/min/mg	8.6	9 nM	218 µL/min/mg	0.32		
Cc1oc(-c2ccccc2)nc1C(=O)N1CCC(Oc2ccc(CN3CCCC3)cc2)CC1		3						754 µM (≈ 336 µg/mL)	
COc1ccc(-c2nnc(C(=O)N3CC(Oc4ccc(CN5CCC(C)(O)C5)cc4)C3)o2)cc1 (stereo not given)	42 ×10⁻⁶ cm/s	1.6	2.8 µL/min/mg	9	35 nM				
O=C(c1cc(-c2ccccc2)on1)N1CCC(Oc2ccc(CN3CCCC3)cc2)CC1		3						198 µM (≈ 85.4 µg/mL)	
O=C(c1nnc(-c2ccccc2)o1)N1CCC(Oc2ccc(CN3CCCC3)cc2)CC1	55 ×10⁻⁶ cm/s	2.2						> 100 µM	
COc1ccc(-c2nnc(C(=O)N3CC(Oc4ccc(CN5CCN(C)CC5)c(F)c4)C3)o2)cc1	46 ×10⁻⁶ cm/s	2.2	36 µL/min/mg	8.4			0.35		
COc1ccc(-c2nnc(C(=O)N3CCC(Oc4ccc(CN5CC(O)C(C)(C)C5)cc4)CC3)o2)cc1 (stereo not given)	34 ×10⁻⁶ cm/s	2.6	19 µL/min/mg	8.9					91 nM
COc1ccc(-c2nnc(C(=O)N3CC(Oc4ccc(CN(C)C)cn4)C3)o2)cc1		1.8	13 µL/min/mg	8.5		145 µL/min/mg			
CN1CCN(Cc2ccc(OC3CN(C(=O)c4nnc(-c5ccccc5)o4)C3)cc2F)CC1	46 ×10⁻⁶ cm/s	2.1	20 µL/min/mg	8.4			0.35		
O=C(c1nnc(-c2ccc(OC(F)F)cc2)o1)N1CCC(Oc2ccc(CN3CCCC3)cc2)CC1	50 ×10⁻⁶ cm/s	2.9	15 µL/min/mg						
COc1ccc(-c2nnc(C(=O)N3CCC(Oc4ccc(CN5CCC(O)C5)cc4)CC3)o2)cc1 (stereo not given)	36 ×10⁻⁶ cm/s	2		8.9					293 nM
